Results: US6350755B1, “Inhibitors of prenyl-protein transferase” (Merck & Co., Inc., priority 2000, dated 2002)

Target: T1, human FPTase (Homo sapiens, UniProt P49354+P49356)
T1 construct: made in house
Assay: In vitro inhibition of Ras farnesyl transferase
Format: biochemical
Conditions: recombinant FPTase; 650 nM Ras-CVLS, 100 nM farnesyl diphosphate; 30° C.; read-out: IC50 for inhibitory activity against human FPTase
Procedure: Transferase Assays. Isoprenyl-protein transferase activity assays are carried out at 30° C. unless noted otherwise. A typical reaction contains (in a final volume of 50 μL): [^3H]farnesyl diphosphate, Ras protein, 50 mM HEPES, pH 7.5, 5 mM MgCl2, 5 mM dithiothreitol, 10 μM ZnCl2, 0.1% polyethyleneglycol (PEG) (15,000-20,000 mw) and isoprenyl-protein transferase. The FPTase employed in the assay is prepared by recombinant expression as described in Omer, C. A., Kral, A. M., Diehl, R. E., Prendergast, G. C., Powers, S., Allen, C. M., Gibbs, J. B. and Kohl, N. E. (1993) Biochemistry 32:5167-5176. After thermally pre-equilibrating the assay mixture in the absence of enzyme, reactions are initiated by the addition of isoprenyl-protein transferase and stopped at timed intervals (typically 15 min) by the addition of 1 M HCl in ethanol (1 mL). The quenched reactions are allowed to stand for 15 m (to complete the precipitation process). After adding 2 mL of 100% ethanol, the reactions are vacuum-filtered through Whatman GF/C filters. Filters are washed four times with 2 mL aliquots of 100% ethanol, mixed with scintillation fluid (10 mL) and then counted in a Beckman LS3801 scintillation counter.
For inhibition studies, assays are run as described above, except inhibitors are prepared as concentrated solutions in 100% dimethyl sulfoxide and then diluted 20-fold into the enzyme assay mixture. […]

IC50: ≤ 5 µM
SMILES: Cn1cnc2c1C1c3ccc(C#N)c(c3)Oc3cccc(c3)S(=O)(=O)NCCC(=O)N1CC2 (racemic) [Example 1]
